Values of other authors as cited in paper PMC6332596 (Journal of Hematology & Oncology, 2019).

Design: method as in PMID 25933833, PMID 21131552
Settings: compared with chiauranib; cited from earlier work

| Structure (SMILES) | DLTs in phase I trials |
| --- | --- |
| Cc1cc(Nc2cc(N3CCN(C)CC3)nc(/C=C/c3ccccc3)n2)n[nH]1 [ENMD-2076] | more DLTs, such as pancreatic disease and hypertension, fatigue, cholecystitis, and QTc prolonged |
| Nc1ncc(-c2cnn(CCO)c2)c2scc(-c3ccc(NC(=O)Nc4cccc(F)c4)cc3)c12 [Ilorasertib] | more DLTs, such as pancreatic disease and hypertension, fatigue, cholecystitis, and QTc prolonged |
